This is an account of results in article PMC9062088 (RSC Advances, 2019).

One assay addresses T1, human TyrRS (Homo sapiens, UniProt P54577).
T1 sequence (P54577 1-341): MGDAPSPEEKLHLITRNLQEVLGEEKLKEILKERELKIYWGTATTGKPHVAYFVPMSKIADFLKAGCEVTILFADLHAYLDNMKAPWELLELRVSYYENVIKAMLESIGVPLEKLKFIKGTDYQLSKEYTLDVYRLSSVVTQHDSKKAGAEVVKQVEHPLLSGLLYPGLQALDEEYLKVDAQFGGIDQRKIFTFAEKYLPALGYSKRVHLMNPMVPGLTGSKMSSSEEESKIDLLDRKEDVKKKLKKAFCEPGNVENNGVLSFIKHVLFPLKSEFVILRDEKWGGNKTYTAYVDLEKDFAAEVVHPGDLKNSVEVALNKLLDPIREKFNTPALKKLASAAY
The assay is described as follows: ATP–pyrophosphate exchange assay. The format is biochemical. The note with it: for remaining activity at 100 µM: read-out: Enzyme activity@100 μM (%); for inhibitory effect on human TyrRS (SAR statement in words): 100 μM screening data of Tables 1 and 2.

In assay [1] the test system is HeLa cells. The experiment in a line: Detection of DNA damage in cells. The format is cell-based, human. The note with it: pre-treated 24 h (0.37-30 μM), then 30 μM cisplatin 24 h, immunoblot. In general terms: Immunoblotting shows a protein as a band on a membrane.
Assay [2] deals with HeLa cells. The assay is described as follows: Cellular localization of TyrRS. The format is cell-based, human. The note with it: HeLa cells, 1.1, 3.3, 10 or 30 μM, 8 h, immunoblot.

For the compound `COc1cc(O)c(Sc2ccccc2F)c2oc(-c3ccccc3)cc(=O)c12` [Compound 18], the remaining activity at 100 µM on human TyrRS stood at 73.8%.
Take `O=c1cc(-c2ccccc2)oc2c(Sc3cccc(O)c3)c(O)c(Sc3cccc(O)c3)c(O)c12` [Compound 11, 5,7-dihydroxy-6,8-bis((3-hydroxyphenyl)thio)-2-phenyl-4H-chromen-4-one]: the “level of γ-H2A.X (DNA damage)” value in the assay with HeLa cells [1] is “dramatically decreased”. Besides, in the assay on HeLa cells [2], the TyrRS nuclear localization result is “dramatically promoted the nuclear localization of TyrRS”.
For the compound `O=c1cc(-c2ccccc2)oc2c(Sc3cccc(O)c3)c(O)cc(O)c12` [Compound 26], the remaining activity at 100 µM on human TyrRS came to 93.2%.
For `CC(C)(C)c1ccc(Sc2c(O)c(Sc3ccc(C(C)(C)C)cc3)c3oc(-c4ccccc4)cc(=O)c3c2O)cc1` [Compound 9], at human TyrRS, the “inhibitory effect on human TyrRS (SAR statement in words)” value is recorded as “substantially diminished activity” and the remaining activity at 100 µM is 85.3%.
Take `COc1cc(O)c(Sc2cccc(F)c2)c2oc(-c3ccccc3)cc(=O)c12` [Compound 15]: the remaining activity at 100 µM on human TyrRS was determined as 68.5%.
With `Cc1ccccc1Sc1c(O)c(Sc2ccccc2C)c2oc(-c3ccccc3)cc(=O)c2c1O` [Compound 8], at human TyrRS, the “inhibitory effect on human TyrRS (SAR statement in words)” value was “substantially diminished activity” and the remaining activity at 100 µM is 75.9%.
On the same counts, the results for `COc1ccccc1Sc1c(O)c(Sc2ccccc2OC)c2oc(-c3ccccc3)cc(=O)c2c1O` [Compound 3] are “substantially diminished activity” and 88.9%.
Regarding `COc1ccc(Sc2c(O)cc(OC)c3c(=O)cc(-c4ccccc4)oc23)cc1` [Compound 21], the remaining activity at 100 µM on human TyrRS is 73.9%.
As for `O=c1cc(-c2ccccc2)oc2c(Sc3ccccc3O)c(O)cc(O)c12` [Compound 29], the remaining activity at 100 µM at human TyrRS was 81.9%.
On the same count and under the same terms, the same measure for `COc1cc(O)c(Sc2ccc(F)cc2)c2oc(-c3ccccc3)cc(=O)c12` [Compound 16]: 76.4%.
